molecular target: T1, Acetylcholinesterase (Bos taurus, UniProt P23795); assay: Inhibition of bovine erythrocyte acetylcholinesterase
T1 sequence (P23795 whole entry): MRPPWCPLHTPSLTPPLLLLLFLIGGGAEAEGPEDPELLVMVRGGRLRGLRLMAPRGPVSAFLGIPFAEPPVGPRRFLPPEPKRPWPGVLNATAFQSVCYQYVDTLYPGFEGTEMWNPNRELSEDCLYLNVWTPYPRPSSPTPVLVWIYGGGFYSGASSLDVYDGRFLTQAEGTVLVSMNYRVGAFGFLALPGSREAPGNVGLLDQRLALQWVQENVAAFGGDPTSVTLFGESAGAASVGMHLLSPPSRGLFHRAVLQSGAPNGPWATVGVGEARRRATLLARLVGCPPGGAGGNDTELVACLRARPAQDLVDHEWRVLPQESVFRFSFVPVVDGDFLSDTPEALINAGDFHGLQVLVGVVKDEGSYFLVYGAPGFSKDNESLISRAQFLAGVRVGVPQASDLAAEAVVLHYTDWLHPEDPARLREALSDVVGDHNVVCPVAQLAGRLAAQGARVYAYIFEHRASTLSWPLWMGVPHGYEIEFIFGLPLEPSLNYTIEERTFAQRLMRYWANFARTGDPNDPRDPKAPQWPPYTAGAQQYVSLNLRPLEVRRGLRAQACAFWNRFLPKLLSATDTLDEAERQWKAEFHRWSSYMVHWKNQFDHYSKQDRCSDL

Going from `CC1=C[C@H]2Cc3[nH]c(=O)ccc3[C@](N)(C1)/C2=C/CO` to `CC1=C[C@H]2Cc3[nH]c(=O)ccc3[C@]3(C1)NCC[C@@H](O)[C@H]23` [CARINATUMINS B (2)], the IC50 rises from 4.6 µM to 7 µM (1.5-fold). The first is the more potent here.

In the case of `C[C@H]1C[C@@H](CC2=[N+]([O-])CCCC2)[C@@H]2CCCN[C@H]2C1`, the IC50 is reported as over 100 µM.
